Test results published in patent publication US5912164A, “Stereoselective hydrolysis of chiral carboxylic acid esters using esterase from ophiostoma or ceratocystis” (Laboratorios Menarini S.A., priority 1993, dated 1999).
Values belong to the molecule of their own block, whether it stands above or below them.

Legend:
[1] = system: AJ3 crude enzyme solution (esterase); assay: Hydrolysis of racemic ketoprofen esters in 2-phase biotransformations; type: biochemical, Ophiostoma novo-ulmi; details: ester 20 g/l in cyclohexane, 24 hours, 25° C.
Procedure: Various esters of racemic ketoprofen were dissolved in cyclohexane to a concentration of 20 g/l. The esters used were methyl, ethyl, n-propyl, n-butyl, n-pentyl, n-hexyl. In the case of methyl ester, a suspension was prepared due to low solubility of ester in cyclohexane.
To 5 ml aliquots of crude enzyme solution in glass vials was added 2 ml of each of the six racemic ketoprofen ester solutions above. […] Reactions were conducted with shaking for 24 hours at 25° C.

[2] = system: cloned AJ3 esterase in recombinant E. coli CS62 lysate; assay: Hydrolysis of racemic butyrate ester of 2-methoxycyclohexanol by lysate of CS62; type: biochemical, Ophiostoma novo-ulmi; details: 41 hours, 25° C., pH 8.0
Procedure: Cells (grown as per Example 7) were resuspended at 5% w/v in 100 mM TRIS, pH 8, and lysed by sonication for 15 minutes (10 seconds on, 10 seconds off cycle) at an amplitude of 20 μm in a Soniprep 150. The lysate was centrifuged to remove cell debris and the supernatant used in biotransformation.
10 g of the racemic butyrate ester of 2-methoxycyclo-hexanol was mixed with 100 ml of 100 mm TRIS, pH 8, by magnetic stirring. 20 ml of the above lysate of CS62 was added. The temperature of the biotransformation was controlled at 25° C. and the pH at 8.0 by the addition of 1M NaOH. Samples were removed and monitored for 2-methoxycyclohexanol formation. NaCl was added to saturation to 1 ml sample which was then extracted into 1 ×5 volumes of toluene. The toluene layer was removed and dried by the addition of MgSO4. The sample was then analysed by GC. A 15 m DB-5 column with 0.25 μm film was used with helium as the carrier, at 55.2 kPa, the oven temperature was 60° C. for 1 minute, raised at 10° C./min to 150° C., and this temperature was then held for a further minute.
The ee of the 2-methoxycyclohexanol formed was determined following derivatisation with trifluoroacetic anhydride (TFAA). 20 μl of TFAA was added to 1 ml of the toluene-extracted sample which was then allowed to stand at ambient temperature for 30 minutes. […]

Cells of AJ3 = assay: Whole-broth biotransformation of racemic ethyl ketoprofen by growing cells of AJ3; type: cell-based, Ophiostoma novo-ulmi; details: 20 g/l ester in broth, 120 hours
Procedure: This was shaken for 30 hours at 23° C. and then 2.5 ml transferred into a second 250 ml baffled flask containing 30 ml of the same medium as in Example 1. Following growth for 40 hours, at 23° C. with shaking, racemic ethyl ketoprofen was added to the broth to a concentration of 20 g/l.

[3] = system: cloned AJ3 esterase in recombinant E. coli CS62 lysate; assay: Hydrolysis of racemic ethyl naproxen by cell-free lysate of recombinant strain CS62; type: biochemical, Ophiostoma novo-ulmi; details: 1 hour, 25° C.
Procedure: Cells of CS62 grown and stored as described above were used to provide enzyme for use in the hydrolysis of ethyl naproxen. Cells were resuspended at 10% w/v in 0.1M sodium carbonate, pH 10, and lysed by sonication for 10 minutes (10 seconds on, 10 seconds off cycles) at 4° C. The enzyme lysate was then centrifuged to obtain a cell-free supernatant solution.
Racemic ethyl naproxen was dissolved in cyclohexane to a concentration of 100 g/l. 200 μl of this solution was added to 1 ml enzyme solution and shaken for 1 hour at 25° C. The phases were then separated and the aqueous phase analysed (by reverse phase HPLC) for naproxen accumulation.

[4] = system: esterase of AJ3 (Ophiostoma novo-ulmi), crude enzyme solution; assay: Hydrolysis of racemic ethyl naproxen in cyclohexane by crude enzyme lysate of AJ3; type: biochemical; details: 72 hours, 23° C.
Procedure: This culture was grown with shaking at 30° C. for 48 hours. 10 ml was then transferred into 90 ml fresh medium in a 1 liter shake flask and grown for a further 8 hours at 30° C. with shaking. This flask was used to inoculate a 2.8 1 laboratory fermenter with 1.5 1 medium plus 5 g/l glucose and 0.5 ml/l of a silicone/PPG-based antifoam (XF0371, Ivanhoe Chemicals, Ill., U.S.A.). This fermenter was operated for 48 hours with agitation and aeration, controlled to maintain a DOT >50% air saturation and temperature and pH at 30° C. and 6.0 respectively.
At the completion of the fermentation the cells were harvested by centrifugation and the pellet resuspended at 10% w/v (based on wet cell weight) in lysis buffer, i.e. 0.1M sodium carbonate in 5% Triton X-100 aqueous solution. Lysis was carried out overnight at 8° C. with shaking after which the enzyme activity-containing lysate was separated from the cell debris by centrifugation. The lysate was then diluted 50% in lysis buffer, prior to its being used to carry out resolution.
Racemic ethyl naproxen (ethyl 6-methoxy-α-methyl-2-naphthaleneacetate) was dissolved in cyclohexane to a concentration of 19 mg/ml. 2 ml of this solution was then mixed with 5 ml of prepared crude enzyme solution in a glass vial and reacted with shaking for 72 hours at 23° C.

[5] = Screen of 12 commercially-available lipase/esterase preparations on the butyrate ester; type: biochemical; details: racemic butyrate ester of 2-methoxycyclohexanol as substrate
Text: The stereo-specific activity of this biocatalyst is considered unusual. […] This is potentially advantageous in that it enables access to the (S)-enantiomer as the alcohol without having to exceed 50% conversion.

Molecule: COC(=O)C(C)c1cccc(C(=O)c2ccccc2)c1 (racemic) [METHYL]
ACID PRODUCED [1]: 1.7 mg/mL
CONVERSION [1]: 42.3%
EE (%)(S)-enantiomer [1]: 90%

Molecule: CCCC(=O)OC1CCCCC1OC (racemic) [butyrate ester of 2-methoxycyclo-hexanol]
conversion of the substrate [2]: 44%
ee of the 2-methoxycyclohexanol in favour of the (S)-enantiomer [2]: 96%

Molecule: CCOC(=O)C(C)c1cccc(C(=O)c2ccccc2)c1 (racemic) [ethyl ketoprofen]
enantiomeric excess of ketoprofen acid formed, in favour of the (S)-enantiomer (Cells of AJ3): 96%
hydrolysis of the added ester (Cells of AJ3; HPLC): 18.2%

Molecule: CCOC(=O)C(C)c1ccc2cc(OC)ccc2c1 (racemic) [ethyl naproxen, ethyl 6-methoxy-α-methyl-2-naphthaleneacetate]
CONVERSION [3]: about 26%
ee in favour of the S-enantiomer [3]: > 95%
naproxen accumulated in aqueous phase ([3]; ester 100 g/l in cyclohexane, 200 μl + 1 ml enzyme): 5.3 g/L
enantiomeric purity of naproxen, (S) enantiomer (equivalent to the ee) [4]: 96.5%
ee (enantiomeric excess) of naproxen in favour of the (S) enantiomer ([4]; HPLC): 93%
CONVERSION ([4]; cyclohexane 2-phase): about 40%
accumulation of naproxen in aqueous phase ([4]; ester 19 mg/ml in cyclohexane, 2 ml + 5 ml crude enzyme): 2.76 mg/mL

Molecule: CCCOC(=O)C(C)c1cccc(C(=O)c2ccccc2)c1 (racemic) [n-PROPYL]
ACID PRODUCED [1]: 1.0 mg/mL
CONVERSION [1]: 25.6%
EE (%)(S)-enantiomer [1]: 86%

Now from value to molecule:

ACID PRODUCED [1]: 0.3 mg/mL
CONVERSION [1]: 8.0%
Molecule: CCCCOC(=O)C(C)c1cccc(C(=O)c2ccccc2)c1 (racemic) [n-BUTYL]

ACID PRODUCED [1]: 0.09 mg/mL
CONVERSION [1]: 2.3%
Molecule: CCCCCCOC(=O)C(C)c1cccc(C(=O)c2ccccc2)c1 (racemic) [n-HEXYL]

ACID PRODUCED [1]: 0.18 mg/mL
CONVERSION [1]: 4.4%
Molecule: CCCCCOC(=O)C(C)c1cccc(C(=O)c2ccccc2)c1 (racemic) [n-PENTYL]

stereo-specificity of hydrolysis [5]: specificity for the (R)-enantiomer
B1: porcine pancreatic lipase: commercially-available lipase/esterase preparation (protein, UniProt P00591 1-450, looked up)
Pancreatic triacylglycerol …: SEVCFPRLGCFSDDAPWAGIVQRPLKILPWSPKDVDTRFLLYTNQNQNNYQELVADPSTITNSNFRMDRKTRFIIHGFIDKGEEDWLSNICKNLFKVESVNCICVDWKGGSRTGYTQASQNIRIVGAEVAYFVEVLKSSLGYSPSNVHVIGHSLGSHAAGEAGRRTNGTIERITGLDPAEPCFQGTPELVRLDPSDAKFVDVIHTDAAPIIPNLGFGMSQTVGHLDFFPNGGKQMPGCQKNILSQIVDIDGIWEGTRDFVACNHLRSYKYYADSILNPDGFAGFPCDSYNVFTANKCFPCPSEGCPQMGHYADRFPGKTNGVSQVFYLNTGDASNFARWRYKVSVTLSGKKVTGHILVSLFGNEGNSRQYEIYKGTLQPDNTHSDEFDSDVEVGDLQKVKFIWYNNNVINPTLPRVGASKITVERNDGKVYDFCSQETVREEVLLTLNPC
